Measurements published in ChEMBL document CHEMBL3991601, “The target landscape of clinical kinase drugs” (Science, 2017).
Active and inactive are the calls of the source.

Experiments:
[1] = molecular target: Dual specificity protein kinase CLK3 (Homo sapiens, UniProt P49761); type: subcellular, K-562, COLO 205, SK-N-BE(2) and MV-4-11, Cell lysate; conditions: read-out: Kd apparent
[2] = molecular target: T1, Adenine phosphoribosyltransferase (Homo sapiens, UniProt P07741)
T1 sequence (P07741 whole entry): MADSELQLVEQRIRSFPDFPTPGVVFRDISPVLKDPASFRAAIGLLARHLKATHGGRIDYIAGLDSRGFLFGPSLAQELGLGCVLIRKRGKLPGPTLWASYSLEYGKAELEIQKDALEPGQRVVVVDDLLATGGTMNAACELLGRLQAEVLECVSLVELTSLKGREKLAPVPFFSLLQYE

[3] = molecular target: Serine/threonine-protein kinase MRCK gamma (Homo sapiens, UniProt Q6DT37)
[4] = molecular target: Dual specificity protein kinase CLK2 (Homo sapiens, UniProt P49760)
[5] = molecular target: Ephrin type-A receptor 7 (Homo sapiens, UniProt Q15375)
[6] = molecular target: Guanine nucleotide-binding protein G(i) subunit alpha-2 (Homo sapiens, UniProt P04899)
[7] = molecular target: T2, Inhibitor of nuclear factor kappa-B kinase subunit epsilon (Homo sapiens, UniProt Q14164)
T2 sequence (Q14164 whole entry): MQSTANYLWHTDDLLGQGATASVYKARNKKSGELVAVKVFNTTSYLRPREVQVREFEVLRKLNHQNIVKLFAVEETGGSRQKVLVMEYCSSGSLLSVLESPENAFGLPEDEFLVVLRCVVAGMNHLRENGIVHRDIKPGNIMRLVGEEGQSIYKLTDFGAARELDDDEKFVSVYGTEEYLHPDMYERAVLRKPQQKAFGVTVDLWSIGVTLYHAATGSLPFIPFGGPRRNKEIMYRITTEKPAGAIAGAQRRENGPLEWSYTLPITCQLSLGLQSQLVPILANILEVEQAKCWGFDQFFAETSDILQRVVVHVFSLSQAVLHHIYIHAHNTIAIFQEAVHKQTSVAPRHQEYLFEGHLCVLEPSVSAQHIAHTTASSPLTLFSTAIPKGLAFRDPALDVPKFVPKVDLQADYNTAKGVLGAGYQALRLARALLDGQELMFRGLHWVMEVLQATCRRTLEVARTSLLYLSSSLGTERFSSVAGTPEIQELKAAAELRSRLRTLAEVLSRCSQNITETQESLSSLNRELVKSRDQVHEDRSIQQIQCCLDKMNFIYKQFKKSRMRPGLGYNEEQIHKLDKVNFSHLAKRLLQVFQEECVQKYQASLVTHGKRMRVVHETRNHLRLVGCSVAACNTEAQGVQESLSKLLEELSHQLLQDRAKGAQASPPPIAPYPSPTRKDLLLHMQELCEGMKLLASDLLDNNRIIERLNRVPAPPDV

[8] = molecular target: Misshapen-like kinase 1 (Homo sapiens, UniProt Q8N4C8)
[9] = molecular target: Phosphatidylethanolamine-binding protein 1 (Homo sapiens, UniProt P30086)
[10] = molecular target: Proto-oncogene tyrosine-protein kinase receptor Ret (Homo sapiens, UniProt P07949)
[11] = molecular target: Serine/threonine-protein kinase Nek7 (Homo sapiens, UniProt Q8TDX7)
[12] = molecular target: T3, Phosphatidylinositol 5-phosphate 4-kinase type-2 alpha (Homo sapiens, UniProt P48426)
T3 sequence (P48426 whole entry): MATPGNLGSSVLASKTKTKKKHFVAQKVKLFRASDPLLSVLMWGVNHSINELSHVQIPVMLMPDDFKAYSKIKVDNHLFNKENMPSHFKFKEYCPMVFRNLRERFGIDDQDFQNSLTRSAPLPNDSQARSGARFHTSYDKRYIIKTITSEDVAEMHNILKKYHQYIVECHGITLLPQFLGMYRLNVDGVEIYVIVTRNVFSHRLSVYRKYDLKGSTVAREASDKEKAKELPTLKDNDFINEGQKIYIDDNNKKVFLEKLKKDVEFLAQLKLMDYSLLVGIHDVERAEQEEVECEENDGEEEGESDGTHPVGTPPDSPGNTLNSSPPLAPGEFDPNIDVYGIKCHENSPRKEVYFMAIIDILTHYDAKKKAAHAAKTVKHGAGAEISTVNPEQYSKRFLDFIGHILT

[13] = molecular target: T4, Cyclin-dependent kinase-like 5 (Homo sapiens, UniProt O76039)
T4 sequence (O76039 whole entry): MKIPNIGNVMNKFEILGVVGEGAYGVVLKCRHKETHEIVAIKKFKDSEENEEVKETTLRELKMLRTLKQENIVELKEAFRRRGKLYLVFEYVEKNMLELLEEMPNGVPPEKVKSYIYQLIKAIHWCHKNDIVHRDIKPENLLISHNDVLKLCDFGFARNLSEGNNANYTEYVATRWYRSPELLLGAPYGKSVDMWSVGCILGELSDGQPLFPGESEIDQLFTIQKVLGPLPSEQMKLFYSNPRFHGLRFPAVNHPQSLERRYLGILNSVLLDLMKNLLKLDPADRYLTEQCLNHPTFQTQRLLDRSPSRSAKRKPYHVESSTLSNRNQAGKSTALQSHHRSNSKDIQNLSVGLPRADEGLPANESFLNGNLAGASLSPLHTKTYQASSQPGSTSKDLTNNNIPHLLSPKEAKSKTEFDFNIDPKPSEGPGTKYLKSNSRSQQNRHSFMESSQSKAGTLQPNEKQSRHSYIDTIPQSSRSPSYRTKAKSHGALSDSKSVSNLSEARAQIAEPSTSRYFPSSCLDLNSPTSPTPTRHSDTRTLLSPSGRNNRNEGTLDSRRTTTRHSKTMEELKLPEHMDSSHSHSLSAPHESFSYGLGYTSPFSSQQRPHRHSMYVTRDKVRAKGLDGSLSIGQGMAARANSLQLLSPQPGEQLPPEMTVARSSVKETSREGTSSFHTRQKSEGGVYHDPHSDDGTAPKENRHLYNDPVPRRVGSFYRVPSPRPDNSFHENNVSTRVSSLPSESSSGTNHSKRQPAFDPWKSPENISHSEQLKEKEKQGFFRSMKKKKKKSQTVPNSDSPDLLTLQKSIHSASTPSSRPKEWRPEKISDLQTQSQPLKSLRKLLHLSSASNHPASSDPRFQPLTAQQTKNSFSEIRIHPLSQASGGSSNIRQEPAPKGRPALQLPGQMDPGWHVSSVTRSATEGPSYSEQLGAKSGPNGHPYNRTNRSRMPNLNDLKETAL

[14] = molecular target: Choline-phosphate cytidylyltransferase A (Homo sapiens, UniProt P49585)
Note: in the data inactive means no Kd found up to 30 µM.

Chain of Phosphatidylethanolamine-binding protein 1 (P30086 whole entry): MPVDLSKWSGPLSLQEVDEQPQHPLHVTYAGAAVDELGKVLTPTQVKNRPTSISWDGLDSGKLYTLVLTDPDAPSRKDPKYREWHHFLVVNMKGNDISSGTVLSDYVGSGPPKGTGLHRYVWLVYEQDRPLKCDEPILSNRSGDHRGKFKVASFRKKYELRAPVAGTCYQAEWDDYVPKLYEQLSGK
Chain of Serine/threonine-protein kinase Nek7 (Q8TDX7 whole entry): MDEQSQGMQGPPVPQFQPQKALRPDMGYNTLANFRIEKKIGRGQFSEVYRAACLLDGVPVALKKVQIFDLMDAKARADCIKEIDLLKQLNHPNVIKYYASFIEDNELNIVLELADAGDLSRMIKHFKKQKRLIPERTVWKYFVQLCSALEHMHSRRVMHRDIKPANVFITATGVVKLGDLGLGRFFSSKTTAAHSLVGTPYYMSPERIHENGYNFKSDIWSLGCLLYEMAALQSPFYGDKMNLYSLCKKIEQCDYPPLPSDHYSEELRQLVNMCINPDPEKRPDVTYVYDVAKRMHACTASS
Chain of Dual specificity protein kinase CLK2 (P49760 whole entry): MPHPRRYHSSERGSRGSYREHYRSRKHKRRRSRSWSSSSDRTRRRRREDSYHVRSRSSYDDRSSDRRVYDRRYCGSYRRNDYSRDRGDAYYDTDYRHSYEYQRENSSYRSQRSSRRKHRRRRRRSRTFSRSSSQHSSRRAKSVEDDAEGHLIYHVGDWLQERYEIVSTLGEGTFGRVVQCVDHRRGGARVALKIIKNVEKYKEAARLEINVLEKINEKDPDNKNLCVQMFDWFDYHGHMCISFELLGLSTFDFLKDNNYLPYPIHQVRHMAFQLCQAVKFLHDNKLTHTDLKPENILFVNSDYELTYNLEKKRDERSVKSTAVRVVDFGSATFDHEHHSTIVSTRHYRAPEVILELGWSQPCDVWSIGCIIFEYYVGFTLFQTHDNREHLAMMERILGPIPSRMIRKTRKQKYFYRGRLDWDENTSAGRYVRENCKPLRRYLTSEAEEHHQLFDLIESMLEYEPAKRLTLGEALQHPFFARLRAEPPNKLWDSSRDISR
Chain of Guanine nucleotide-binding protein G(i) subunit alpha-2 (P04899 whole entry): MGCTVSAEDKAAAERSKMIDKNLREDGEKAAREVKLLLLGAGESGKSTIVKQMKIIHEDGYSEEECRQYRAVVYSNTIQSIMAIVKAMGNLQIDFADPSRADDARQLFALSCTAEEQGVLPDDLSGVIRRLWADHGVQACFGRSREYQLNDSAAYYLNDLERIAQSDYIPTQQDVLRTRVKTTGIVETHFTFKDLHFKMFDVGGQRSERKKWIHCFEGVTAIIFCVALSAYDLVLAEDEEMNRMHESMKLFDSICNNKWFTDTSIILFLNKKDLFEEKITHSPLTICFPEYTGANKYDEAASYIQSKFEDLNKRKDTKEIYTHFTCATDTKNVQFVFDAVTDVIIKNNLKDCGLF
Chain of Choline-phosphate cytidylyltransferase A (P49585 whole entry): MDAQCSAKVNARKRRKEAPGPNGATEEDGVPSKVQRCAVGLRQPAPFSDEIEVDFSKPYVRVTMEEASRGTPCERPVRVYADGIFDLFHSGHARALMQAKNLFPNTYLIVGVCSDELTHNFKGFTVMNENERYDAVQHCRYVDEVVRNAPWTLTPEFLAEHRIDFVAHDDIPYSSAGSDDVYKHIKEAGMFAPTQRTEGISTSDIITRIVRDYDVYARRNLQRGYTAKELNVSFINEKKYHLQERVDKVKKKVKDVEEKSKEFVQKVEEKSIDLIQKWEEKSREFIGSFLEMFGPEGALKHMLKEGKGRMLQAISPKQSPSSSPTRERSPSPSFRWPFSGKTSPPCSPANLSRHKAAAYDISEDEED
Chain of Proto-oncogene tyrosine-protein kinase receptor Ret (P07949 whole entry): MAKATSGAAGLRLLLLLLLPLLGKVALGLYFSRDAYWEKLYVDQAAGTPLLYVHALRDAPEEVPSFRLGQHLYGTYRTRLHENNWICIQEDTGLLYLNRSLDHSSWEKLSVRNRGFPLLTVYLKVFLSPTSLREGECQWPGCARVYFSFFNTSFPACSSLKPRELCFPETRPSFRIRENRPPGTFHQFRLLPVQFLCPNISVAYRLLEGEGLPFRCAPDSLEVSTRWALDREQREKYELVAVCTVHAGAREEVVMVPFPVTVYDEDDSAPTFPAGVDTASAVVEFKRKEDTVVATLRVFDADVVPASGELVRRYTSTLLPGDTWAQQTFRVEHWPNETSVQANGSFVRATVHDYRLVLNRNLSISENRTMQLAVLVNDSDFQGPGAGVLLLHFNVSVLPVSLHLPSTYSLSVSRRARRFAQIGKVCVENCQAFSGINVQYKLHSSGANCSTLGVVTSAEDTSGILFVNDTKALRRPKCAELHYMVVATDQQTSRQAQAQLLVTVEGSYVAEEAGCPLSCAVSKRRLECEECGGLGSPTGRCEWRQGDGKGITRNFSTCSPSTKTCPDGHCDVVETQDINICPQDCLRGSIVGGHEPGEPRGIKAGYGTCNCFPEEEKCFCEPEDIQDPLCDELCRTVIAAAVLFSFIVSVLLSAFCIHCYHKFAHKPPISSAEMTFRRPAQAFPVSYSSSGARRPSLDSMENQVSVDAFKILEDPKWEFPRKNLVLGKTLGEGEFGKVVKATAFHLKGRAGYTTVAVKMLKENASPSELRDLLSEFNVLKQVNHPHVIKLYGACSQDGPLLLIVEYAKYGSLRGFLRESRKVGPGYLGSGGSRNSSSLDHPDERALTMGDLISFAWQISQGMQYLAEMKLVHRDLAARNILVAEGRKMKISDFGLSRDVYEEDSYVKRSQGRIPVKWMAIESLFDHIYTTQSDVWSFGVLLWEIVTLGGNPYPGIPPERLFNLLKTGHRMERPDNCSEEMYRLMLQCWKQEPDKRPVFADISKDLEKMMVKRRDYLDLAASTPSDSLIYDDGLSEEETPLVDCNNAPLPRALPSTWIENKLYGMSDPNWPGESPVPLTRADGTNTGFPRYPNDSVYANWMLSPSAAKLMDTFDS
Chain of Serine/threonine-protein kinase MRCK gamma (Q6DT37 whole entry): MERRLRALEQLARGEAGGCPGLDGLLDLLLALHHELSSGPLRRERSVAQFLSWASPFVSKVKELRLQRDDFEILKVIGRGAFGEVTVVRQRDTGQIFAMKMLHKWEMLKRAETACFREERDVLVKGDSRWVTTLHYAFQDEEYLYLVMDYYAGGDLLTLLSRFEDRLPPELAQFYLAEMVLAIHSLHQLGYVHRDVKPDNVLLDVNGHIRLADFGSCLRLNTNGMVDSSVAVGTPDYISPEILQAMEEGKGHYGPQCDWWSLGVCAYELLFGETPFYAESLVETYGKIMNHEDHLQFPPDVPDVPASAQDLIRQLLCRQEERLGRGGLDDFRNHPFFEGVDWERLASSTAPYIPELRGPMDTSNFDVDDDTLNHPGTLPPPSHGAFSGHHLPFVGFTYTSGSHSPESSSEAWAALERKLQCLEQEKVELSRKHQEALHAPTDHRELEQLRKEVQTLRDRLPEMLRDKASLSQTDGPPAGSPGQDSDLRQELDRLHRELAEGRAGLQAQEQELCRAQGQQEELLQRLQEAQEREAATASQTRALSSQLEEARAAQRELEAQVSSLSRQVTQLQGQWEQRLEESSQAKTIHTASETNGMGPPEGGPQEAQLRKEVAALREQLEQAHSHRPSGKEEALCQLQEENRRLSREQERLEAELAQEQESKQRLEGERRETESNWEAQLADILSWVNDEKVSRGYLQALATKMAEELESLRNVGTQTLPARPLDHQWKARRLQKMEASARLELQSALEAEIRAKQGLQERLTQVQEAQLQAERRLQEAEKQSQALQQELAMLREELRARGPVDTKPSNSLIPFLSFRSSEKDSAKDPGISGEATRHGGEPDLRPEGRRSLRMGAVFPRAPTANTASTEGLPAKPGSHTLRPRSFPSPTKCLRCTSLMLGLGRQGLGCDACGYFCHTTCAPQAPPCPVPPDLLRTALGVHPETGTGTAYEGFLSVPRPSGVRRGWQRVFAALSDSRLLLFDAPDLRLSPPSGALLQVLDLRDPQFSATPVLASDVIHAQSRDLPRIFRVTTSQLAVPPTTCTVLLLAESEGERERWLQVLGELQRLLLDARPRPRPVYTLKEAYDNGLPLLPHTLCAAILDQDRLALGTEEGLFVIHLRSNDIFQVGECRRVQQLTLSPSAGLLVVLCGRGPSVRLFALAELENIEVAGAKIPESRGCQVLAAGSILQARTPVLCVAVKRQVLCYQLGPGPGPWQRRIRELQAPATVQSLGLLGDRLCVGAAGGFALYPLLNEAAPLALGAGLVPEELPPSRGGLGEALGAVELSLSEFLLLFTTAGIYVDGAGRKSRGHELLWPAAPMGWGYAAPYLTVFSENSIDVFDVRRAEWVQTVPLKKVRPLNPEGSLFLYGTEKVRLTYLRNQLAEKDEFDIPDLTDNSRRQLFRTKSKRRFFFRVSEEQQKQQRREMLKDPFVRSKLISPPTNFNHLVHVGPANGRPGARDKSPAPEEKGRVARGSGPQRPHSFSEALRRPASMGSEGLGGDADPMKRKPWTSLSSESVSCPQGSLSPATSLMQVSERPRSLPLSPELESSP
Chain of Dual specificity protein kinase CLK3 (P49761 whole entry): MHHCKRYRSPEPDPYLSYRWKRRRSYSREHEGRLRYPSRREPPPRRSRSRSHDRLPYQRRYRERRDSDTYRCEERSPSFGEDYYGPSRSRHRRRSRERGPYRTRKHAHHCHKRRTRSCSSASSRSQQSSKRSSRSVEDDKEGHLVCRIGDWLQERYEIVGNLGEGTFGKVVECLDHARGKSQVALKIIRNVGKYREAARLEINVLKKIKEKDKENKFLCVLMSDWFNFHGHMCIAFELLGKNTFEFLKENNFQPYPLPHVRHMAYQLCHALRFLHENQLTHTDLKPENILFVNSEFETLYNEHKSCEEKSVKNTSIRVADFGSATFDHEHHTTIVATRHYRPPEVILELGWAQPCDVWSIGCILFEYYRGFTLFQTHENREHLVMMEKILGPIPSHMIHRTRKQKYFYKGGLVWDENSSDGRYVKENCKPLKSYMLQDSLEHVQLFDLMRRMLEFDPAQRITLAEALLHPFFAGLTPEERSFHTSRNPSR

| Compound | Kd [1] | Kd [2] | Kd [3] | Kd [4] | Kd [5] | Kd [6] | Kd [7] | Kd [8] | Kd [9] | Kd [10] | Kd [11] | Kd [12] | Kd [13] | Kd [14] |
| --- | --- | --- | --- | --- | --- | --- | --- | --- | --- | --- | --- | --- | --- | --- |
| Cc1c(F)cc(C(=O)NC2CC2)cc1-c1ccc(C(=O)NCC(C)(C)C)cn1 [LOSMAPIMOD] | > 30 µM (inactive) | > 30 µM (inactive) | > 30 µM (inactive) | > 30 µM (inactive) | > 30 µM (inactive) | > 30 µM (inactive) | – | > 30 µM (inactive) | – | > 30 µM (inactive) | – | > 30 µM (inactive) | – | – |
| C=CC(=O)N1CCC(Oc2cc3c(Nc4ccc(Cl)c(Cl)c4F)ncnc3cc2OC)CC1 [POZIOTINIB] | > 30 µM (inactive) | – | – | – | > 30 µM (inactive) | > 30 µM (inactive) | > 30 µM (inactive) | > 30 µM (inactive) | – | 1.19 µM (active) | – | – | > 30 µM (inactive) | > 30 µM (inactive) |
| CC(=O)Nc1cccc(-n2c(=O)n(C3CC3)c(=O)c3c(Nc4ccc(I)cc4F)n(C)c(=O)c(C)c32)c1 [TRAMETINIB] | > 30 µM (inactive) | > 30 µM (inactive) | > 30 µM (inactive) | > 30 µM (inactive) | > 30 µM (inactive) | > 30 µM (inactive) | > 30 µM (inactive) | > 30 µM (inactive) | > 30 µM (inactive) | > 30 µM (inactive) | – | > 30 µM (inactive) | > 30 µM (inactive) | > 30 µM (inactive) |
| CN1CC[C@@H](c2c(O)cc(O)c3c(=O)cc(-c4ccccc4Cl)oc23)[C@@H]1CO | > 30 µM (inactive) | > 30 µM (inactive) | – | > 30 µM (inactive) | > 30 µM (inactive) | – | > 30 µM (inactive) | > 30 µM (inactive) | > 30 µM (inactive) | > 30 µM (inactive) | > 30 µM (inactive) | – | 0.024 µM | – |
| CN1CCC(COc2cnc(-c3cccc(Cn4nc(-c5cccc(C#N)c5)ccc4=O)c3)nc2)CC1 [TEPOTINIB] | > 30 µM (inactive) | > 30 µM (inactive) | > 30 µM (inactive) | – | > 30 µM (inactive) | > 30 µM (inactive) | > 30 µM (inactive) | > 30 µM (inactive) | > 30 µM (inactive) | > 30 µM (inactive) | > 30 µM (inactive) | > 30 µM (inactive) | – | – |
| CC[C@@H]1C(=O)N(C)c2cnc(Nc3ccc(C(=O)N[C@H]4CC[C@H](N5CCN(CC6CC6)CC5)CC4)cc3OC)nc2N1C(C)C [VOLASERTIB] | > 30 µM (inactive) | > 30 µM (inactive) | > 30 µM (inactive) | > 30 µM (inactive) | > 30 µM (inactive) | > 30 µM (inactive) | > 30 µM (inactive) | > 30 µM (inactive) | > 30 µM (inactive) | > 30 µM (inactive) | > 30 µM (inactive) | > 30 µM (inactive) | – | > 30 µM (inactive) |
| O=C(O)[C@]1(Cc2cccc(Nc3nccs3)n2)CC[C@@H](Oc2cccc(Cl)c2F)CC1 [MK-5108] | > 30 µM (inactive) | – | > 30 µM (inactive) | > 30 µM (inactive) | > 30 µM (inactive) | > 30 µM (inactive) | > 30 µM (inactive) | > 30 µM (inactive) | – | 0.388 µM (active) | > 30 µM (inactive) | > 30 µM (inactive) | > 30 µM (inactive) | > 30 µM (inactive) |

The remaining lines, values ahead:

| Kd [1] | Kd [2] | Kd [3] | Kd [4] | Kd [5] | Kd [6] | Kd [7] | Kd [8] | Kd [9] | Kd [10] | Kd [11] | Kd [12] | Kd [13] | Kd [14] | Compound |
| --- | --- | --- | --- | --- | --- | --- | --- | --- | --- | --- | --- | --- | --- | --- |
| > 30 µM (inactive) | > 30 µM (inactive) | > 30 µM (inactive) | > 30 µM (inactive) | > 30 µM (inactive) | > 30 µM (inactive) | > 30 µM (inactive) | > 30 µM (inactive) | > 30 µM (inactive) | 0.973 µM (active) | – | – | – | – | CCS(=O)(=O)N1CC(CC#N)(n2cc(-c3ncnc4[nH]ccc34)cn2)C1 [BARICITINIB] |
| > 30 µM (inactive) | > 30 µM (inactive) | > 30 µM (inactive) | > 30 µM (inactive) | – | > 30 µM (inactive) | > 30 µM (inactive) | > 30 µM (inactive) | > 30 µM (inactive) | – | > 30 µM (inactive) | > 30 µM (inactive) | – | – | COc1cc2nccc(Oc3ccc(NC(=O)NC4CC4)c(Cl)c3)c2cc1C(N)=O [LENVATINIB] |
| > 30 µM (inactive) | – | > 30 µM (inactive) | 0.0004 µM (active) | > 30 µM (inactive) | > 30 µM (inactive) | > 30 µM (inactive) | > 30 µM (inactive) | – | > 30 µM (inactive) | > 30 µM (inactive) | > 30 µM (inactive) | > 30 µM (inactive) | – | O=C1NC(=O)/C(=C/c2ccc3nccc(-c4ccncc4)c3c2)S1 [GSK-1059615] |
| > 30 µM (inactive) | > 30 µM (inactive) | > 30 µM (inactive) | > 30 µM (inactive) | > 30 µM (inactive) | > 30 µM (inactive) | > 30 µM (inactive) | > 30 µM (inactive) | > 30 µM (inactive) | > 30 µM (inactive) | – | > 30 µM (inactive) | > 30 µM (inactive) | 0.041 µM | COC(=O)N[C@@H](C)CNc1nccc(-c2cn(C(C)C)nc2-c2cc(Cl)cc(NS(C)(=O)=O)c2F)n1 [ENCORAFENIB] |
| > 30 µM (inactive) | – | > 30 µM (inactive) | – | > 30 µM (inactive) | > 30 µM (inactive) | > 30 µM (inactive) | > 30 µM (inactive) | – | 0.39 µM (active) | – | > 30 µM (inactive) | > 30 µM (inactive) | > 30 µM (inactive) | CNC(=O)CN1CCC(Oc2cc3c(Nc4cccc(Cl)c4F)ncnc3cc2OC)CC1 [SAPITINIB] |
| > 30 µM (inactive) | > 30 µM (inactive) | > 30 µM (inactive) | – | > 30 µM (inactive) | > 30 µM (inactive) | – | > 30 µM (inactive) | > 30 µM (inactive) | – | > 30 µM (inactive) | > 30 µM (inactive) | > 30 µM (inactive) | > 30 µM (inactive) | OCCn1cc(-c2cnc3nnn(Cc4ccc5ncccc5c4)c3n2)cn1 [PF-04217903] |
